According to ChEMBL document CHEMBL1151745, “Identification of potent, selective, and metabolically stable peptide antagonists to the calcitonin gene-related peptide (CGRP) receptor” (J Med Chem, 2008):
Calls of active or inactive are those of the source. The rule behind the calls is not given here. Where a SMILES comes first, the peptide text is derived from it. [ ]: non-standard residue; d: D form. Igl = N[C@H](C(=O)O)C1Cc2ccccc2C1; hArg = N=C(N)NCCCC[C@H](N)C(=O)O; Tic = O=C(O)[C@@H]1Cc2ccccc2CN1; Cit = NC(=O)NCCC[C@H](N)C(=O)O

molecular target: Calcitonin gene-related peptide type 1 receptor (Homo sapiens) (UniProt Q16602); assay: Agonist activity at human CGRP1 receptor in human SK-N-MC cells
Sequence (Q16602 whole entry, looked up): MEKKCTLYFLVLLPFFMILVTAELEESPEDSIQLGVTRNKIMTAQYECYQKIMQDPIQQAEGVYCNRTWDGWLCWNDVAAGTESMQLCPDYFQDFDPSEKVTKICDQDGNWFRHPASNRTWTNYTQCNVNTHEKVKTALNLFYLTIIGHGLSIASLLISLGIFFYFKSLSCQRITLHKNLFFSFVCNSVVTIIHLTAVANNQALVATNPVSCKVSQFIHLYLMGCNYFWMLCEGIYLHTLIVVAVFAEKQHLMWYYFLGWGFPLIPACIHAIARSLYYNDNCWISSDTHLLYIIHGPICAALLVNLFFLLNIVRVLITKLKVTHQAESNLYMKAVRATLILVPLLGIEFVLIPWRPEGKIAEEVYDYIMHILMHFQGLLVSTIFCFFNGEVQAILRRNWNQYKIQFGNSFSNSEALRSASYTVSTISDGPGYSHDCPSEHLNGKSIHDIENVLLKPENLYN

Activity, inactive:
CC(=O)N[C@@H](Cc1c[nH]c2ccccc12)C(=O)N[C@H](C(=O)N[C@H]1CCC(=O)NCCCC[C@@H](C(=O)NCC(=O)N[C@H]2CCC(=O)NCCCC[C@@H](C(=O)NCC(=O)NCC(=O)N[C@H](C(=O)N[C@H](C(=O)N[C@@H](CCCCNC(=N)N)C(=O)N[C@@H](CCCCN)C(=O)N[C@@H](CC(N)=O)C(=O)N[C@@H](Cc3ccccc3)C(=O)N[C@H](C(=O)N3CCC[C@H]3C(=O)N[C@H](C(=O)N[C@@H](CC(=O)O)C(=O)N[C@H](C(=O)NCC(=O)N3CCC[C@H]3C(=O)N[C@@H](Cc3ccccc3)C(=O)N[C@@H](C)C(=O)N[C@@H](Cc3ccccc3)C(N)=O)C(C)C)[C@@H](C)O)C(C)C)C(C)C)C(C)C)NC(=O)[C@H](CCCNC(=N)N)NC(=O)[C@H](CO)NC(=O)[C@H](CC(C)C)NC2=O)NC(=O)[C@H](CC(C)C)NC(=O)[C@H](CCCNC(=N)N)NC(=O)[C@H](Cc2cnc[nH]2)NC1=O)C(C)C
CC(=O)N[C@@H](Cc1c[nH]c2ccccc12)C(=O)N[C@H](C(=O)N[C@H](C(=O)N[C@@H](Cc1cnc[nH]1)C(=O)N[C@@H](CCCNC(N)=O)C(=O)N[C@@H](CC(C)C)C(=O)N[C@@H](C)C(=O)NCC(=O)N[C@@H](CC(C)C)C(=O)N[C@@H](CC(C)C)C(=O)N[C@@H](CO)C(=O)N[C@@H](CCCNC(N)=O)C(=O)N[C@@H](CO)C(=O)NCC(=O)NCC(=O)N[C@H](C(=O)N[C@H](C(=O)N[C@@H](CCCCNC(=N)N)C(=O)N[C@@H](CCCCN)C(=O)N[C@@H](CC(N)=O)C(=O)N[C@@H](Cc1ccccc1)C(=O)N[C@H](C(=O)N1CCC[C@H]1C(=O)N[C@H](C(=O)N[C@@H](CC(=O)O)C(=O)N[C@H](C(=O)NCC(=O)NC1(C(=O)N[C@@H](Cc2ccccc2)C(=O)N[C@@H](C)C(=O)N[C@@H](Cc2ccccc2)C(N)=O)CCNCC1)C(C)C)[C@@H](C)O)C(C)C)C(C)C)C(C)C)[C@@H](C)O)C(C)C
CC(=O)N[C@@H](Cc1c[nH]c2ccccc12)C(=O)N[C@H](C(=O)N[C@H](C(=O)N[C@@H](Cc1cnc[nH]1)C(=O)N[C@@H](CCCNC(N)=O)C(=O)N[C@@H](CC(C)C)C(=O)N[C@@H](C)C(=O)NCC(=O)N[C@@H](CC(C)C)C(=O)N[C@@H](CC(C)C)C(=O)N[C@@H](CO)C(=O)N[C@@H](CCCNC(N)=O)C(=O)N[C@@H](CO)C(=O)NCC(=O)NCC(=O)N[C@H](C(=O)N[C@H](C(=O)N[C@@H](CCCNC(=N)N)C(=O)N[C@@H](CCCCN)C(=O)N[C@@H](CC(N)=O)C(=O)N[C@@H](Cc1ccccc1)C(=O)N[C@H](C(=O)N1CCC[C@H]1C(=O)N[C@H](C(=O)N[C@@H](CC(=O)O)C(=O)N[C@H](C(=O)NCC(=O)N1C2CCCCC2C[C@H]1C(=O)N[C@@H](Cc1ccccc1)C(=O)N[C@@H](C)C(=O)N[C@@H](Cc1ccccc1)C(N)=O)C(C)C)[C@@H](C)O)C(C)C)C(C)C)C(C)C)[C@@H](C)O)C(C)C (stereo not given in full)
CC(=O)N[C@@H](Cc1c[nH]c2ccccc12)C(=O)N[C@H](C(=O)N[C@H](C(=O)N[C@@H](Cc1cnc[nH]1)C(=O)N[C@@H](CCCNC(N)=O)C(=O)N[C@@H](CC(C)C)C(=O)N[C@@H](C)C(=O)NCC(=O)N[C@@H](CC(C)C)C(=O)N[C@@H](CC(C)C)C(=O)N[C@@H](CO)C(=O)N[C@@H](CCCNC(N)=O)C(=O)N[C@@H](CO)C(=O)NCC(=O)NCC(=O)N[C@H](C(=O)N[C@H](C(=O)N[C@@H](CCCCNC(=N)N)C(=O)N[C@@H](CCCCN)C(=O)N[C@@H](CC(N)=O)C(=O)N[C@@H](Cc1ccccc1)C(=O)N[C@H](C(=O)N1CCC[C@H]1C(=O)N[C@H](C(=O)N[C@@H](CC(=O)O)C(=O)N[C@H](C(=O)NCC(=O)N1CCC[C@H]1C(=O)N1Cc2ccccc2C[C@H]1C(=O)N[C@@H](C)C(=O)N[C@@H](Cc1ccccc1)C(N)=O)C(C)C)[C@@H](C)O)C(C)C)C(C)C)C(C)C)[C@@H](C)O)C(C)C (Ac-WVTH[Cit]LAGLLS[Cit]SGGVV[hArg]KNFVPTDVGP[Tic]AF-NH2)
CC(=O)N[C@@H](Cc1c[nH]c2ccccc12)C(=O)N[C@H](C(=O)N[C@H](C(=O)N[C@@H](Cc1cnc[nH]1)C(=O)N[C@@H](CCCNC(N)=O)C(=O)N[C@@H](CC(C)C)C(=O)N[C@@H](C)C(=O)NCC(=O)N[C@@H](CC(C)C)C(=O)N[C@@H](CC(C)C)C(=O)N[C@@H](CO)C(=O)N[C@@H](CCCNC(N)=O)C(=O)N[C@@H](CO)C(=O)NCC(=O)NCC(=O)N[C@H](C(=O)N[C@H](C(=O)N[C@@H](CCCCNC(=N)N)C(=O)N[C@@H](CCCCN)C(=O)N[C@@H](CC(N)=O)C(=O)N[C@@H](Cc1ccccc1)C(=O)N[C@H](C(=O)N1CCC[C@H]1C(=O)N[C@H](C(=O)N[C@@H](CC(=O)O)C(=O)N[C@H](C(=O)NCC(=O)N1CCC[C@H]1CC(=O)N[C@@H](Cc1ccccc1)C(=O)N[C@@H](C)C(=O)N[C@@H](Cc1ccccc1)C(N)=O)C(C)C)[C@@H](C)O)C(C)C)C(C)C)C(C)C)[C@@H](C)O)C(C)C
CC(=O)N[C@@H](Cc1c[nH]c2ccccc12)C(=O)N[C@H](C(=O)N[C@H](C(=O)N[C@@H](Cc1cnc[nH]1)C(=O)N[C@@H](CCCNC(N)=O)C(=O)N[C@@H](CC(C)C)C(=O)N[C@@H](C)C(=O)NCC(=O)N[C@@H](CC(C)C)C(=O)N[C@@H](CC(C)C)C(=O)N[C@@H](CO)C(=O)N[C@@H](CCCNC(N)=O)C(=O)N[C@@H](CO)C(=O)NCC(=O)NCC(=O)N[C@H](C(=O)N[C@H](C(=O)N[C@@H](CCCCNC(=N)N)C(=O)N[C@@H](CCCCN)C(=O)N[C@@H](CC(N)=O)C(=O)N[C@@H](Cc1ccccc1)C(=O)N[C@H](C(=O)N1C(C(=O)N[C@H](C(=O)N[C@@H](CC(=O)O)C(=O)N[C@H](C(=O)NCC(=O)N2C3CCCCC3C[C@H]2C(=O)N[C@@H](Cc2ccccc2)C(=O)N[C@@H](C)C(=O)N[C@@H](Cc2ccccc2)C(N)=O)C(C)C)[C@@H](C)O)CC2CCCCC21)C(C)C)C(C)C)C(C)C)[C@@H](C)O)C(C)C (stereo not given in full)
CC(=O)N[C@@H](Cc1c[nH]c2ccccc12)C(=O)N[C@H](C(=O)N[C@H](C(=O)N[C@@H](Cc1cnc[nH]1)C(=O)N[C@@H](CCCNC(N)=O)C(=O)N[C@@H](CC(C)C)C(=O)N[C@@H](C)C(=O)NCC(=O)N[C@@H](CC(C)C)C(=O)N[C@@H](CC(C)C)C(=O)N[C@@H](CO)C(=O)N[C@@H](CCCNC(=N)N)C(=O)N[C@@H](CO)C(=O)NCC(=O)NCC(=O)N[C@H](C(=O)N[C@H](C(=O)N[C@@H](CCCNC(=N)N)C(=O)N[C@@H](CCCCN)C(=O)N[C@@H](CC(N)=O)C(=O)N[C@@H](Cc1ccccc1)C(=O)N[C@H](C(=O)N1CCC[C@H]1C(=O)N[C@H](C(=O)N[C@@H](CC(=O)O)C(=O)N[C@H](C(=O)NCC(=O)N1CCC[C@H]1C(=O)N[C@@H](Cc1ccccc1)C(=O)N[C@@H](C)C(=O)N[C@@H](Cc1ccccc1)C(N)=O)C(C)C)[C@@H](C)O)C(C)C)C(C)C)C(C)C)[C@@H](C)O)C(C)C
CC(=O)N[C@@H](Cc1c[nH]c2ccccc12)C(=O)N[C@H](C(=O)N[C@H](C(=O)N[C@@H](Cc1cnc[nH]1)C(=O)N[C@@H](CCCNC(N)=O)C(=O)N[C@@H](CC(C)C)C(=O)N[C@@H](C)C(=O)NCC(=O)N[C@@H](CC(C)C)C(=O)N[C@@H](CC(C)C)C(=O)N[C@@H](CO)C(=O)N[C@@H](CCCNC(N)=O)C(=O)N[C@@H](CO)C(=O)NCC(=O)NCC(=O)N[C@H](C(=O)N[C@H](C(=O)N[C@@H](CCCCNC(=N)N)C(=O)N[C@@H](CCCCN)C(=O)N[C@@H](CC(N)=O)C(=O)N[C@@H](Cc1ccccc1)C(=O)N[C@H](C(=O)N1CCC[C@H]1C(=O)N[C@H](C(=O)N[C@@H](CC(=O)O)C(=O)N[C@H](C(=O)NCC(=O)N1CSC[C@H]1C(=O)N[C@@H](Cc1ccccc1)C(=O)N[C@@H](C)C(=O)N[C@@H](Cc1ccccc1)C(N)=O)C(C)C)[C@@H](C)O)C(C)C)C(C)C)C(C)C)[C@@H](C)O)C(C)C
CC(=O)N[C@@H](Cc1c[nH]c2ccccc12)C(=O)N[C@H](C(=O)N[C@H](C(=O)N[C@@H](Cc1cnc[nH]1)C(=O)N[C@@H](CCCNC(N)=O)C(=O)N[C@@H](CC(C)C)C(=O)N[C@@H](C)C(=O)NCC(=O)N[C@@H](CC(C)C)C(=O)N[C@@H](CC(C)C)C(=O)N[C@@H](CO)C(=O)N[C@@H](CCCNC(N)=O)C(=O)N[C@@H](CO)C(=O)NCC(=O)NCC(=O)N[C@H](C(=O)N[C@H](C(=O)N[C@@H](CCCCNC(=N)N)C(=O)N[C@@H](CCCCN)C(=O)N[C@@H](CC(N)=O)C(=O)N[C@@H](Cc1ccccc1)C(=O)N[C@H](C(=O)N1CCC[C@H]1C(=O)N[C@H](C(=O)N[C@@H](CC(=O)O)C(=O)N[C@H](C(=O)NCC(=O)N1CCC[C@@H]1C(=O)N[C@@H](Cc1ccccc1)C(=O)N[C@@H](C)C(=O)N[C@@H](Cc1ccccc1)C(N)=O)C(C)C)[C@@H](C)O)C(C)C)C(C)C)C(C)C)[C@@H](C)O)C(C)C
CC(=O)N[C@@H](Cc1c[nH]c2ccccc12)C(=O)N[C@H](C(=O)N[C@H](C(=O)N[C@@H](Cc1cnc[nH]1)C(=O)N[C@@H](CCCNC(N)=O)C(=O)N[C@@H](CC(C)C)C(=O)N[C@@H](C)C(=O)NCC(=O)N[C@@H](CC(C)C)C(=O)N[C@@H](CC(C)C)C(=O)N[C@@H](CO)C(=O)N[C@@H](CCCNC(N)=O)C(=O)N[C@@H](CO)C(=O)NCC(=O)NCC(=O)N[C@H](C(=O)N[C@H](C(=O)N[C@@H](CCCCNC(=N)N)C(=O)N[C@@H](CCCCN)C(=O)N[C@@H](CC(N)=O)C(=O)N[C@@H](Cc1ccccc1)C(=O)N[C@H](C(=O)N1CCC[C@H]1C(=O)N[C@H](C(=O)N[C@@H](CC(=O)O)C(=O)N[C@H](C(=O)NCC(=O)N1CCC[C@H]1C(=O)N[C@H](C(=O)N[C@@H](C)C(=O)N[C@@H](Cc1ccccc1)C(N)=O)C1Cc2ccccc2C1)C(C)C)[C@@H](C)O)C(C)C)C(C)C)C(C)C)[C@@H](C)O)C(C)C (Ac-WVTH[Cit]LAGLLS[Cit]SGGVV[hArg]KNFVPTDVGP[Igl]AF-NH2)
